Test results: patent publication US20120276196A1, “Pharmaceutical Compositions of a Neuroactive Steroid and Methods of Use Thereof” (Euro-Celtique S.A., priority 2005, published 2012)

Key:
[1] = human, in vivo, po
Excerpt: (§1) The study is designed as an escalating single-dose, randomized, double-blind, placebo-controlled study in healthy adult male subjects.
(§2) The subjects will be monitored closely for safety and be tested using various pharmacodynamic measures during this phase. E.g. blood and urine samples will be collected for determination of the concentration of the active agent and its metabolites.
(§3) Pharmacokinetic samples will be analyzed after each cohort to examine the extent of drug exposure. Blood samples will be collected for determination of the active agent, its metabolites, and related substances at the following time-points: 0.25, 0.5, 1.0, 1.5, 2, 3, 4, 5, 6, 8, 10,12, 24, 30, 36, 48, 60, 72, 84 hr after dosing, and at End of Study. Up to 5 additional post-dosing blood sampling(s) may be performed and/or the timing of pharmacokinetic parameters draws may change if indicated after the analysis of blood samples from previous cohort(s). Samples will be collected after vital signs, pulse oximetry, and ECG are obtained.

[2] = escalating single-dose, randomized, double blind, placebo-controlled pharmacokinetic study, oral suspension, healthy male subjects; settings: human, plasma
Excerpt: as §1, §2, §3

[3] = clinical; settings: male, human, in vivo
Excerpt: as §1, §2, §3

With `COC[C@@]1(O)CC[C@]2(C)C3CC[C@@]4(C)C(CC[C@@H]4C(=O)Cn4ccnc4)C3CC[C@H]2C1` (stereo partly drawn) [3α-hydroxy-3β-methoxymethyl-21-(1′-imidazolyl)-5α-pregnan-20-one] the “Cmax levels between subjects” value [1] was “variable”, the “Cmax values versus dose” value [1] was “greater than dose-proportional” and the half-life ([2]; 1 mg) was 828 min. For the same compound, the half-life ([2]; 10 mg) was 786 min, the half-life ([2]; 30 mg) was 786 min and the half-life ([2]; 60 mg) was 750 min. For the same compound, the Tmax [3] was 1.5 to 5 h, the Cmax ([3]; 1 mg) was 1 to 1.8 ng/mL and the Cmax ([3]; 3 mg) was 4 to 8 ng/mL. For the same compound, the Cmax ([3]; 10 mg) was 16.9 to 46.3 ng/mL, the Cmax ([3]; 30 mg) was 95.6 to 154 ng/mL and the Cmax ([3]; 60 mg) was 218 to 479 ng/mL. It also gave a Tmax ([3]; po) of 1 to 3 h, a half-life ([3]; po) of ~720 min and a Cmax ([3]; po, 1 mg) of 1.3 ng/mL. It also gave a Tmax ([3]; po, 1 mg) of 3.1 h, an AUC(0-t) ([3]; po, 1 mg, AUC (0-24)) of 16.9 ng·h/mL and an AUC(0-t) ([3]; po, 1 mg, AUC (0-last)) of 22.4 ng·h/mL. For the same compound, the Cmax ([3]; po, 3 mg) was 5.7 ng/mL, the Tmax ([3]; po, 3 mg) was 2.8 h and the half-life ([3]; po, 3 mg) was 528 min. For the same compound, the AUC(0-t) ([3]; po, 3 mg, AUC (0-24)) was 54.6 ng·h/mL, the AUC(0-t) ([3]; po, 3 mg, AUC (0-last)) was 65.6 ng·h/mL and the Cmax ([3]; po, 10 mg) was 26.5 ng/mL. The Tmax ([3]; po, 10 mg) was 1.7 h, the AUC(0-t) ([3]; po, 10 mg, AUC (0-24)) was 213 ng·h/mL and the AUC(0-t) ([3]; po, 10 mg, AUC (0-last)) was 254 ng·h/mL. It also gave a Cmax ([3]; po, 30 mg) of 120 ng/mL, a Tmax ([3]; po, 30 mg) of 2.1 h and an AUC(0-t) ([3]; po, 30 mg, AUC (0-24)) of 952 ng·h/mL. For the same compound, the AUC(0-t) ([3]; po, 30 mg, AUC (0-last)) was 1120 ng·h/mL, the Cmax ([3]; po, 60 mg) was 330 ng/mL and the Tmax ([3]; po, 60 mg) was 1.8 h. For the same compound, the AUC(0-t) ([3]; po, 60 mg, AUC (0-24)) was 2330 ng·h/mL and the AUC(0-t) ([3]; po, 60 mg, AUC (0-last)) was 2610 ng·h/mL.
